# Measurements from PubChem BioAssay (NCI).
#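 1) Cells in 96-well plates. 2) Compound, 48 h, 5 concentrations. 3) Linear interpolation between surrounding doses. 4) Unreached endpoint = highest concentration. Abbreviation: GI50, concentration required for 50% inhibition of growth. TGI: concentration producing complete growth inhibition.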
# Assays:
# Test in all cases: growth of human tumour cells (NCI), 48 h
# [1] = tested on: A498 renal
# [2] = tested on: HL-60(TB) leukemia
# [3] = tested on: HOP-62 NSCLC
# [4] = tested on: HOP-92 NSCLC
# [5] = tested on: NCI-H460 lung
# [6] = tested on: NCI-H522 lung
# [7] = tested on: SF-539 CNS
# [8] = tested on: SK-MEL-28 melanoma
# [9] = tested on: UACC-62 melanoma
# [10] = tested on: UO-31 renal
SMILES,GI50 [1],TGI [1],GI50 [2],TGI [2],GI50 [3],TGI [3],GI50 [4],TGI [4],GI50 [5],TGI [5],GI50 [6],TGI [6],GI50 [7],TGI [7],GI50 [8],TGI [8],GI50 [9],TGI [9],GI50 [10],TGI [10]
COc1ccc2[nH]c(O)c(/C=c3/ccc4c(c3)N=C(c3ccc(F)cc3)N=4)c2c1,1.46 µM,4.28 µM,28.3 µM,> 100 µM,1.93 µM,3.91 µM,2.06 µM,8.75 µM,3.35 µM,12.3 µM,2.79 µM,8.09 µM,3.83 µM,23.7 µM,4.34 µM,28.8 µM,6.11 µM,> 100 µM,1.95 µM,5.01 µM
Cn1c2ccccc2c2nnc(NNCc3ccccn3)nc21,0.415 µM,12.3 µM,0.318 µM,3.13 µM,0.324 µM,4.64 µM,0.279 µM,5.91 µM,0.3 µM,4.03 µM,0.546 µM,18.1 µM,0.393 µM,3.38 µM,0.675 µM,11.2 µM,0.268 µM,0.98 µM,0.258 µM,1.98 µM
Nc1nc(-c2cc(-c3cccc4ccccc34)nc(N)n2)cc(-c2cccc3ccccc23)n1,–,> 100 µM,–,> 100 µM,–,> 100 µM,–,> 100 µM,–,> 100 µM,–,> 100 µM,–,> 100 µM,–,> 100 µM,–,> 100 µM,–,> 100 µM
C/C=C1\CCC2c3[nH]c4ccccc4c3CCN2C1 (configuration not stated),–,> 100 µM,–,> 100 µM,–,> 100 µM,–,99.7 µM,–,> 100 µM,–,> 100 µM,–,> 100 µM,–,> 100 µM,–,> 100 µM,–,> 100 µM
COc1ccc2nccc(/C=C/c3ccnc4ccc(OC)cc34)c2c1,> 36.9 µM,> 83.9 µM,> 50.8 µM,> 86.5 µM,> 64.3 µM,> 100 µM,8.11 µM,> 56.9 µM,> 100 µM,> 100 µM,26.9 µM,89.2 µM,> 93.1 µM,> 100 µM,24.6 µM,73.8 µM,> 77.4 µM,> 100 µM,> 100 µM,> 100 µM
Cc1ncc(-c2ccnc(Nc3ccc(S(C)(=O)=O)cc3)n2)n1C(C)C,0.647 µM,2.55 µM,1.06 µM,4.64 µM,1.36 µM,> 10 µM,0.926 µM,6.16 µM,0.931 µM,> 5.33 µM,1.52 µM,5.29 µM,0.56 µM,2.71 µM,1.28 µM,> 5.69 µM,1.45 µM,3.64 µM,1 µM,> 10 µM
NCCN1C(=O)c2ccccc2C1(O)c1ccc(Cl)cc1 (configuration not stated),–,27.8 µM,–,70.8 µM,–,89.8 µM,–,34.4 µM,–,30.4 µM,–,27.9 µM,–,43.2 µM,–,33.2 µM,–,30.7 µM,–,–
CCN(CC)c1ccc(/C=C/C=C(/C#N)C(N)=S)cc1,10.9 µM,58.9 µM,2.53 µM,18.9 µM,5.37 µM,32.3 µM,10.8 µM,71.3 µM,18.1 µM,> 100 µM,8.54 µM,47.8 µM,12.3 µM,31.3 µM,21.2 µM,> 100 µM,15.2 µM,48.8 µM,4.39 µM,> 100 µM
COC(=O)[C@@H](OC)[C@@H]1Cc2cc3cc(OC4CC(OC5CC(O)C(O)C(C)O5)C(O)C(C)O4)c(C)c(O)c3c(O)c2C(=O)[C@H]1OC1CC(OC2CC(OC3CC(C)(O)C(O)C(C)O3)C(O)C(C)O2)C(O)C(C)O1 (some centres not stated),0.0277 µM,0.0717 µM,0.0405 µM,0.74 µM,0.0312 µM,1.8 µM,0.0365 µM,0.119 µM,0.0429 µM,> 16.5 µM,0.0358 µM,0.172 µM,0.025 µM,0.082 µM,0.0312 µM,0.106 µM,0.0194 µM,0.0469 µM,0.0335 µM,0.12 µM
CNC(=O)c1cc2c(Oc3ccc(NC(=S)NC(=O)Cc4ccccc4)cc3F)ccnc2cc1OC,1.1 µM,4.35 µM,> 100 µM,> 100 µM,22.6 µM,> 100 µM,1.67 µM,> 100 µM,> 100 µM,> 100 µM,10 µM,> 100 µM,0.549 µM,> 30.3 µM,> 100 µM,> 100 µM,3.43 µM,> 100 µM,2.56 µM,> 100 µM
O=c1cc(O)c2c(O)cc(O)cc2o1,–,> 100 µM,–,> 100 µM,–,> 100 µM,–,> 100 µM,–,> 100 µM,–,> 100 µM,–,> 100 µM,–,> 100 µM,–,> 100 µM,–,–
Cc1ccc2c(CC(=O)O)cc(=O)oc2c1,–,> 100 µM,–,> 100 µM,–,> 100 µM,–,> 100 µM,–,> 100 µM,–,> 100 µM,–,> 100 µM,–,> 100 µM,–,> 100 µM,–,–
